Laboratory results reported in patent US20260364056A1, “METHODS OF TREATMENT OF NON-PANCREATIC GASTROINTESTINAL CANCERS” (IONCTURA bv, priority 2023, published 2026).

Experiments:
[1] = tested on: HT-29 cells; assay: Cell viability assay (crystal violet); assay type: cell-based, human
Protocol: (§1) Human colorectal adenocarcinoma HT29 and Caco-2 cells, hepatocellular carcinoma HLE cells, cholangiocarcinoma RBE and KKU-M213 cells were purchased from the American […] Culture Collection (ATCC, Manassas, VA, USA). The hepatocellular carcinoma cell line HLF was purchased from JCRB Cell Bank (Japan). All cell lines were cultured in Dulbecco's Modified Eagle Medium (DMEM) supplemented with 10% foetal bovine serum (FBS), 1 mM pyruvate, 25 mM HEPES, 100 U/mL penicillin-streptomycin (all from Thermo Fisher Scientific, Waltham, MA, USA), and maintained in a humidified atmosphere at 37 °C containing 5% CO2. The medium was changed every three days. Oleoyl-LPA was purchased from Avanti Polar Lipids (Birmingham, AL).
(§2) Cells were seeded in 96-well plates at a density of 2000 cells/well in 10% FBS supplemented medium. After 24 h, medium was removed, the cells washed with PBS and cultured in the presence or absence of FBS and of different concentrations of Compound land LPA. After the time set for the experiment, the cells were fixed with a 4% PFA solution and stained with 0.02% crystal violet for 10 min. Subsequently the plates have been washed with water to remove excess dye. The cell-bound dye was redissolved in 1% SDS and the optical density was measured at λ=570 with a iMark™ Microplate Absorbance Reader (Bio-rad).
(§3) FIGS. 2A and 2B show the effect of Compound 1 on cell proliferation in the absence of FBS and in the presence of 10% FBS. […] Cells were grown in serum free culture medium or in presence of 10% FBS and incubated with increasing Compound 1 concentrations or with DMSO (control cells) for 24, 48 and 72 hours. After fixation, proliferation was assessed by crystal violet staining method. *P<0.05.
(§4) To evaluate the anti-proliferative/cytotoxic effects of Compound 1, six different cancer tumour cell lines were treated developed from cholangiocarcinoma (CCA), hepatocellular carcinoma (HCC) and colorectal cancer (CRC), with increasing concentration of the Compound 1 ranging from 10 μM up to 50 μM and at different times of incubation. After 24, 48 and 72 hours of drug treatment, attached cells were fixed and stained with crystal violet dye. This method is used to evaluate the effect of chemotherapeutics or other anti-cancer drugs on cell survival and proliferation. In the first experiments, Compound 1 was administered to cells in culture medium supplemented with 10% FBS. […] To test the hypothesis that the presence of serum, and consequently the endogenous LPA, could interfere with the Compound 1 activity, all the cancer cells were treated with Compound 1 at concentration ranging from 1 μM up to 12 μM, in the presence or absence of 10% FBS.

[2] = tested on: KKU-M213 cells; assay: Cell viability assay (crystal violet); assay type: cell-based, human
Protocol: as §1, §2, §3, §4

[3] = tested on: RBE cells; assay: Cell viability assay (crystal violet); assay type: cell-based, human
Protocol: as §1, §2, §3, §4

[4] = tested on: HLE cells; assay: Cell viability assay (crystal violet); assay type: cell-based, human
Protocol: as §1, §2, §3, §4

[5] = tested on: Caco2 cells; assay: Cell viability assay (crystal violet); assay type: cell-based, human
Protocol: as §1, §2, §3, §4

[6] = tested on: ATX; details: cited from earlier work
[7] = tested on: ATX; details: cited from earlier work; remark: listed apart in the source
[8] = tested on: apoptosis-related proteins; assay: Human apoptosis antibody array; assay type: cell-based; details: 12 μM, 24 h, vs untreated cells
Protocol: The Human Apoptosis Antibody Array Kit (ab134001, Abcam) was used to detect the apoptosis pathway. Briefly, cells were lysed and each membrane was incubated at 4 °C overnight with 500 μg of total extracted protein. Membranes were then washed and incubated overnight at 4 °C with Biotin-conjugated Anti-Cytokines. After an incubation of the membranes with HRP-streptavidin for 2 h at room temperature, chemiluminescence was detected using ChemiDoc XRS+ (Bio-Rad, Hercules, CA, USA). The images were analysed with Image Lab 5.2.1.
The representative images were randomly selected from at least 3 independent experiments.
To further explore the activity of Compound 1 on gastrointestinal cancer cells, the effectiveness on cell apoptosis was investigated. Following incubation with Compound 1, cells underwent morphological changes of cell shrinkage and cytoplasmic vacuolization (FIG. 1C). An early event in apoptosis is represented by the loss of plasma membrane asymmetry, resulting in the translocation of phosphatidylserine (PS) from the inner to the outer plasma membrane leaflet. Exposed PS on the cell surface can be used to measure apoptosis by the binding with Annexin V. KKU-M213, HLE and HT-29 cells were incubated with increasing concentrations of Compound 1 (3, 9 and 12 μM). After 4 hours, cells were stained with a FITC-Annexin V antibody and fixed. […]

[9] = tested on: Intrahepatic cholangiocarcinoma cancer cells (patient-derived organoid cultures); assay: Patient-derived organoid formation/growth; assay type: cell-based; details: 3, 9 and 12 μm (so in the source), 14 days, compared to vehicle, P<0.001
Protocol: To further explore the activity of Compound 1 on gastrointestinal cancer cells, the effectiveness on organoid formation was investigated. Intrahepatic cholangiocarcinoma cancer cells were isolated from tumour tissues, counted and embedded in 96-well plate with Matrigel. After 3D-model formation, three different concentrations of Compound 1 (3, 9 and 12 μm) were tested in these patient-derived organoid (PDO) cultures. […] Scale bars correspond to 50 μm, Data are presented as the mean±SD; ***P<0.001.

[10] = 1 μM up to 12 μM, 10% FBS, 24, 48 and 72 h
[11] = 3 to 12 μM, absence of FBS, evident after 48 h, stronger after 72 h
[12] = 30 to 50 μM, medium with 10% FBS

Question: With `C[C@H](NC(=O)CCc1nc2cccnc2n1Cc1ccc(OC(F)(F)F)cc1)c1ccc(Cl)cc1` [Compound 1, N-[(S)-1-(4-chloro-phenyl)-ethyl]-3-[3-(4-trifluoromethoxy-benzyl)-3H-imidazo[4,5-b]pyridin-2-yl]-propionamide] as the molecule, how does the “effect on cell proliferation” value [1, 10] read?
Answer: The value was “generally the same as the control”.

Question: And the “effect of FBS on activity of Compound 1” value ([1]; 9 μM, 72 h, 5% FBS)?
Answer: The value was “completely abolishing the Compound 1 effect”.

Question: And the “cell inhibition compared to control” value ([1]; 9 μM, 72 h, no FBS)?
Answer: The value was “clear difference in the cell inhibition compared to the control”.

Question: And the “effect of FBS on activity of Compound 1” value ([1]; 9 μM, 72 h, starting at 2% FBS)?
Answer: The value was “significantly (p<0.05) reduced the activity of Compound 1”.

Question: And the “cytotoxic effect / inhibition of cell proliferation” value (from here on “cytotoxic effect / inhibition”) [1, 11]?
Answer: The value was “significant (p<0.05) cytotoxic effect in a dose-dependent manner”.

Question: And the cytotoxic effect [1, 12]?
Answer: Its cytotoxic effect is “significant (p<0.05) cytotoxic effect”.

Question: What about the “effect on cell proliferation” value [2, 10] of the same molecule?
Answer: The value was “generally the same as the control”.

Question: And the “effect of FBS on activity of Compound 1” value ([2]; 9 μM, 72 h, 5% FBS)?
Answer: The value was “completely abolishing the Compound 1 effect”.

Question: And the “cell inhibition compared to control” value ([2]; 9 μM, 72 h, no FBS)?
Answer: The value was “clear difference in the cell inhibition compared to the control”.

Question: What about the “effect of FBS on activity of Compound 1” value ([2]; 9 μM, 72 h, starting at 2% FBS) of the same molecule?
Answer: The value was “significantly (p<0.05) reduced the activity of Compound 1”.

Question: What about the “cytotoxic effect / inhibition” value [2, 11] of the same molecule?
Answer: Its value is “significant (p<0.05) cytotoxic effect in a dose-dependent manner”.

Question: What about the cytotoxic effect [2, 12] of the same molecule?
Answer: The cytotoxic effect was “significant (p<0.05) cytotoxic effect”.

Question: What about the “effect on cell proliferation” value [3, 10] of the same molecule?
Answer: Its value is “generally the same as the control”.

Question: What about the “cytotoxic effect / inhibition” value [3, 11] of the same molecule?
Answer: The value was “significant (p<0.05) cytotoxic effect in a dose-dependent manner”.

Question: And the cytotoxic effect [3, 12]?
Answer: The cytotoxic effect was “significant (p<0.05) cytotoxic effect”.

Question: And the “effect on cell proliferation” value [4, 10]?
Answer: The value was “generally the same as the control”.

Question: And the “effect of FBS on activity of Compound 1” value ([4]; 9 μM, 72 h, 5% FBS)?
Answer: The value was “completely abolishing the Compound 1 effect”.

Question: And the “cell inhibition compared to control” value ([4]; 9 μM, 72 h, no FBS)?
Answer: Its value is “clear difference in the cell inhibition compared to the control”.

Question: What about the “effect of FBS on activity of Compound 1” value ([4]; 9 μM, 72 h, starting at 2% FBS) of the same molecule?
Answer: The value was “significantly (p<0.05) reduced the activity of Compound 1”.

Question: What about the “cytotoxic effect / inhibition” value [4, 11] of the same molecule?
Answer: The value was “significant (p<0.05) cytotoxic effect in a dose-dependent manner”.

Question: And the cytotoxic effect [4, 12]?
Answer: Its cytotoxic effect is “significant (p<0.05) cytotoxic effect”.

Question: And the “effect on cell proliferation” value [5, 10]?
Answer: The value was “generally the same as the control”.

Question: And the “cytotoxic effect / inhibition” value [5, 11]?
Answer: Its value is “significant (p<0.05) cytotoxic effect in a dose-dependent manner”.

Question: What about the cytotoxic effect [5, 12] of the same molecule?
Answer: Its cytotoxic effect is “significant (p<0.05) cytotoxic effect”.

Question: And the ATX inhibition [6]?
Answer: Its ATX inhibition is “inhibits ATX with high selectivity”.

Question: What about the “binding site on ATX” value [7] of the same molecule?
Answer: Its value is “does not bind to the catalytic zinc region of ATX but binds to both the substrate pocket and the LPA carrier channel”.

Question: And the “differential expression of apoptosis-related proteins” value [8]?
Answer: Its value is “upregulating pro-apoptosic proteins including Bim, Caspase-3 and -8, HTRA, DR6, Fas, p53 and SMAC”.

Question: What about the organoid growth inhibition [9] of the same molecule?
Answer: The organoid growth inhibition was “significant organoid growth inhibition”.
